# Laboratory results reported in patent publication US9994518B2, “Alpha-7 nicotinic acetylcholine receptor modulators and uses thereof” (MERCK SHARP & DOHME CORP., priority 2014, dated 2018).
# Target: T1, α7 nAChR (rat α7/CHO cells) (Rattus norvegicus, UniProt Q05941)
# T1 construct: expressed in transfected cells; host or cells: CHO cells (α7/CHO)
# Test: Evaluation of modulators of α7 nAChRs using the IonFlux HT automated patch clamp system (potentiation of EC20 ACh-evoked currents)
# Type: cell-based
# Settings: percent potentiation of ACh (EC20, approx. 60 μM) response in α7/CHO cells; 6-point dose response 0.03-10 μM; whole cell patch clamp
# Experimental: Evaluation of Modulators of α7 nAChRs Using the IonFlux^HT Automated Patch Clamp System
# Acetylcholine was freshly prepared for each plate run and used at an EC20 concentration (approximately 60 μM for rat α7/CHO) to induce α7 nAChR currents on the IonFlux^HT. To prepare the ACh solution for a single plate, 6 μl of the 100 mM ACh stock was diluted into 10 ml of 0.3% DMSO/external solution
# Test compounds were prepared for a 6-point dose response from 0.03-10 μM. Working stocks were prepared from serial dilutions of 10 mM DMSO stock solutions to give a final DMSO concentration of 0.3%. 80 μl of the final concentration of each compound was added to the appropriate wells in an IonFlux^HT assay plate.
# 2×T175 flasks of α7/CHO cells (˜60-70% confluent) were washed twice with PBS and trypsinized (2 ml) for 3.5 minutes at 37° C./5% CO2. Cells were collected in F-12K complete media, counted and the number required for the assay was calculated, for example, 2×10^6 cells in a final volume of 670 μl of external solution were required to load one zone (one quarter) of an IonFlux^HT assay plate. The correct number of cells was pelleted by centrifuge, the supernatant was discarded and the cell pellet was resuspend in external solution at the required concentration so that cells were added in a volume of 80 μl per well to the IonFlux^HT assay plate.
# Calculation of the Effect of Compounds on ACh Mediated Currents in α7 nAChRs:
# The effect of test compounds on EC20 ACh-evoked currents was calculated by the formula: […]
# The rinse protocol was the initial step in preparation of the IonFlux^HT plate. 80 μl of MilliQ water was added to every well (except Out wells) and the IonFlux^HT assay plate was run through the water rinse protocol on the machine. At the end of the run, the water was discarded from the wells. This action was repeated twice.
# Briefly, to prepare the plate for the assay aliquots of cells, compounds and internal and external solutions were added to wells of the prepared IonFlux^HT plate (80 μl/well) (solutions made to manufacturer's specifications). Automated whole cell patch-clamp recordings were made using the standard IonFlux^HT single application protocol. Vacuum was held at 6 psi/hg throughout the experiment and membrane potential was held at −80 mV for 35 sec and then at −60 mV during data acquisition. Two ACh (EC20) pulses were applied at the beginning of the assay, 90 seconds apart, to provide an ACh baseline response then cells were perfused with modulators for 89 sec before ACh (EC20) was applied for 1 s. The calculation of percent potentiation of the acetylcholine response for each well was performed by the data analysis software supplied with the IonFlux^HT.
# The following compounds were tested in accordance with the above-procedure for activity and the EC50 values determined are reported: […]
# T1 sequence (Q05941 23-502): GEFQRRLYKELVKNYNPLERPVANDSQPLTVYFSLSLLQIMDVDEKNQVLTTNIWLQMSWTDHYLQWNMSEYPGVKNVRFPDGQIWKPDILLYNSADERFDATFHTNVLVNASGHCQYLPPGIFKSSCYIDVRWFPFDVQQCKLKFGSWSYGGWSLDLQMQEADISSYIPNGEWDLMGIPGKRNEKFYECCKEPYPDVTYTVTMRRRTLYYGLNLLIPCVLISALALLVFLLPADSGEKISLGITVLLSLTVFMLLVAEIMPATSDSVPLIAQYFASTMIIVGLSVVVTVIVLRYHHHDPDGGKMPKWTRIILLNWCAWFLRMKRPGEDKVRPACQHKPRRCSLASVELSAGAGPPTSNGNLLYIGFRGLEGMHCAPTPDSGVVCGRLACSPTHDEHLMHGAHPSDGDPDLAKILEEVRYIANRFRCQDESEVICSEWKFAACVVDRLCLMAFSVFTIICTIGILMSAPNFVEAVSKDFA
row,SMILES,EC50 [µM]
1,"COc1ccc(Cl)cc1OC[C@@H]1[C@@H](c2ccc(S(N)(=O)=O)cc2)C12CCCC2 (racemic) [Exp. 2, ±trans 4-{2-[(5-chloro-2-methoxyphenoxy)methyl]spiro[2.4]hept-1-yl}benzenesulfonamide]",0.143
2,"COc1ccc(Cl)cc1OC[C@@H]1[C@@H](c2ccc(S(N)(=O)=O)cc2)C1(C)C (racemic) [Exp. 1, ±trans 4-{3-[(5-chloro-2-methoxyphenoxy)methyl]-2,2-dimethylcyclopropyl}benzenesulfonamide]",0.105
3,"COc1ccc(Cl)cc1CC[C@H]1[C@H](c2ccc(S(N)(=O)=O)cc2)C1(C)C (single isomer, unassigned) [Exp. 52]",0.054
4,"CC1(C)[C@@H](COc2ccc(F)cc2C(F)(F)F)[C@@H]1c1ccc(S(N)(=O)=O)cc1 (single isomer, unassigned) [Exp. 10]",0.429
5,"Cc1ncc(OC[C@H]2[C@H](c3ccc(S(N)(=O)=O)cc3)C2(C)C)cn1 (single isomer, unassigned) [Exp. 56]",> 10
6,"COc1ccc(Cl)cc1OC[C@@H]1C[C@H]1c1ccc(S(N)(=O)=O)cc1 (single isomer, unassigned) [Exp. 40]",1.06
7,"COc1ccc(OC[C@@H]2C[C@H]2c2ccc(S(N)(=O)=O)cc2)c(OC)n1 (single isomer, unassigned) [Exp. 39]",5.36
8,"N#Cc1cc(F)ccc1OC[C@@H]1C[C@H]1c1ccc(S(N)(=O)=O)cc1 (single isomer, unassigned) [Exp. 37]",6
9,"CC1(C)[C@H](COc2cc(F)ccc2OC(F)F)[C@H]1c1ccc(S(N)(=O)=O)cc1 (single isomer, unassigned) [Exp. 22]",0.743
10,"COc1ccc(Cl)cc1CC[C@H]1C[C@@H]1c1ccc(S(N)(=O)=O)cc1 (single isomer, unassigned) [Exp. 51]",0.626
11,"Cc1cc(F)ccc1OC[C@H]1[C@H](c2ccc(S(N)(=O)=O)cc2)C1(C)C (single isomer, unassigned) [Exp. 31]",0.2
12,"COc1ccc(Cl)cc1OC[C@@H]1[C@@H](c2ccc(S(N)(=O)=O)cc2)C1(C)C (single isomer, unassigned) [Exp. 12]",1.35
13,"Cc1ncccc1OC[C@H]1[C@H](c2ccc(NS(N)(=O)=O)cc2)C1(C)C (single isomer, unassigned) [Exp. 20]",3.3
14,"COc1ccc(Cl)cc1CC[C@H]1[C@H](c2ccc(S(N)(=O)=O)cc2)C12CCCC2 (single isomer, unassigned) [Exp. 50]",0.19
15,"COc1ccc(Cl)cc1CC[C@@H]1[C@@H](c2ccc(S(N)(=O)=O)cc2)C12CCCC2 (single isomer, unassigned) [Exp. 49]",0.064
16,"Cc1ccc(OC[C@@H]2[C@@H](c3ccc(S(N)(=O)=O)cc3)C2(C)C)cn1 (single isomer, unassigned) [Exp. 27]",3.97

row,SMILES,EC50 [µM]
1,"CC1(C)[C@H](COc2ccccc2OC(F)F)[C@H]1c1ccc(S(N)(=O)=O)cc1 (single isomer, unassigned) [Exp. 42]",0.625
2,"CC1(C)[C@@H](COc2cccnc2)[C@@H]1c1ccc(S(N)(=O)=O)cc1 (single isomer, unassigned) [Exp. 25]",4.16
3,"COc1cc(F)ccc1OC[C@@H]1C[C@H]1c1ccc(S(N)(=O)=O)cc1 (single isomer, unassigned) [Exp. 41]",2.59
4,"N#Cc1cc(F)ccc1OC[C@@H]1C[C@@H]1c1ccc(S(N)(=O)=O)cc1 (single isomer, unassigned) [Exp. 58]",> 10
5,"Cc1ccc(F)cc1OC[C@H]1[C@H](c2ccc(NS(N)(=O)=O)cc2)C1(C)C (single isomer, unassigned) [Exp. 9]",1.75
6,"COc1ccc(Cl)cc1CC[C@@H]1[C@@H](c2ccc(S(N)(=O)=O)cc2)C1(C)C (single isomer, unassigned) [Exp. 54]",0.124
7,"COc1ccc(Cl)cc1SC[C@H]1[C@H](c2ccc(S(N)(=O)=O)cc2)C1(C)C (single isomer, unassigned) [Exp. 16]",0.125
8,"Cc1ccc(OC[C@H]2[C@H](c3ccc(S(N)(=O)=O)cc3)C2(C)C)cn1 (single isomer, unassigned) [Exp. 33]",0.546
9,"COc1ccc(Cl)cc1OC[C@H]1[C@H](c2ccc(NS(C)(=O)=O)cc2)C1(C)C (single isomer, unassigned) [Exp. 5]",0.193
10,"Cc1ccc(OC[C@H]2[C@H](c3ccc(NS(N)(=O)=O)cc3)C2(C)C)cn1 (single isomer, unassigned) [Exp. 18]",2.3
11,"COc1ccc(OC[C@H]2[C@H](c3ccc(NS(N)(=O)=O)cc3)C2(C)C)cn1 (single isomer, unassigned) [Exp. 17]",4.36
12,"CC1(C)[C@H](COc2ccc(Cl)cn2)[C@H]1c1ccc(S(N)(=O)=O)cc1 (single isomer, unassigned) [Exp. 55]",1.47
13,"COc1ccc(Cl)cc1OC[C@H]1[C@H](c2ccc(S(N)(=O)=O)cc2)C1(C)C (single isomer, unassigned) [Exp. 11]",3.64
14,"CC1(C)[C@@H](COc2cncnc2)[C@@H]1c1ccc(S(N)(=O)=O)cc1 (single isomer, unassigned) [Exp. 57]",> 10
15,"COc1ccc(Cl)cc1OC[C@@H]1C[C@@H]1c1ccc(S(N)(=O)=O)cc1 (single isomer, unassigned) [Exp. 53]",2.19

# Test system: not given
# Test: not given
# Settings: not given
row,SMILES,melting point [°C]
1,"COc1ccc(Cl)cc1OC[C@@H]1[C@@H](c2ccc(S(N)(=O)=O)cc2)C12CCCC2 (racemic) [Exp. 2, ±trans 4-{2-[(5-chloro-2-methoxyphenoxy)methyl]spiro[2.4]hept-1-yl}benzenesulfonamide]",56 to 58
2,"COc1ccc(Cl)cc1OC[C@@H]1[C@@H](c2ccc(S(N)(=O)=O)cc2)C1(C)C (racemic) [Exp. 1, ±trans 4-{3-[(5-chloro-2-methoxyphenoxy)methyl]-2,2-dimethylcyclopropyl}benzenesulfonamide]",158 to 160
